According to US20230355597A1, “COMPOUNDS, COMPOSITIONS, AND METHODS FOR THE TREATMENT AND PREVENTION OF AVIAN PATHOGENIC E. COLI (APEC)” (OHIO STATE INNOVATION FOUNDATION, priority 2018, published 2023):
Read-outs that look alike come from different tables or passages of the source. Marks after values point to notes of the source that are not given here.

Tests used:
[1] = tested on: APEC O115; type: cell-based, avian pathogenic Escherichia coli (APEC); conditions: APEC O115, M63 media; MIC/MBC
[2] = tested on: intracellular APEC O2 in Caco-2 cells; assay: Intracellular survival assay (cidal SMs); conditions: O2, Caco-2, 6 h treatment; superscript = multiple of MIC
[3] = tested on: APEC O78; assay: Confocal microscopy bacterial cytological profiling; type: cell-based, avian pathogenic Escherichia coli (APEC); conditions: 2X MBC
Description: Confocal and scanning electron microscopy. Confocal microscopy was used for bacterial cytological profiling (BCP) to identify the cellular pathways targeted by SMs as described previously. […] After incubation, treated cultures were centrifuged, washed, and resuspended in 100 μL PBS. […] Cultures were then centrifuged, washed, and resuspended in PBS to 1⁄10th volume of the original cultures.

[4] = tested on: APEC O78; assay: Loss of 260/280 nm absorbing materials assay; type: cell-based, avian pathogenic Escherichia coli (APEC); conditions: 2X MBC, 1 h, *P<0.05 vs DMSO
[5] = tested on: APEC O18; type: cell-based, avian pathogenic Escherichia coli (APEC); conditions: APEC O18, M63 media; MIC/MBC
[6] = tested on: intracellular APEC O1 in HD11 cells; assay: Intracellular survival assay (cidal SMs); conditions: O1, HD11, 6 h treatment; superscript = multiple of MIC
[7] = tested on: biofilm embedded APEC O78; assay: MBEC High-throughput assay; type: cell-based, avian pathogenic Escherichia coli (APEC); conditions: biofilm embedded APEC O78; superscript = multiple of MIC (footnote)
[8] = tested on: intracellular APEC O78 in Caco-2 cells; assay: Intracellular survival assay (cidal SMs); conditions: O78, Caco-2, 6 h treatment; superscript = multiple of MIC
[9] = tested on: APEC O35; type: cell-based, avian pathogenic Escherichia coli (APEC); conditions: APEC O35, M63 media; MIC/MBC
[10] = tested on: APEC O1-63; type: cell-based, avian pathogenic Escherichia coli (APEC); conditions: APEC O1-63, M63 media; MIC/MBC
[11] = tested on: APEC O2-211; type: cell-based, avian pathogenic Escherichia coli (APEC); conditions: APEC O2-211, M63 media; MIC/MBC
[12] = tested on: APEC O8; type: cell-based, avian pathogenic Escherichia coli (APEC); conditions: APEC O8, M63 media; MIC/MBC
[13] = tested on: intracellular APEC O1 in Caco-2 cells; assay: Intracellular survival assay (cidal SMs); conditions: O1, Caco-2, 6 h treatment; superscript = multiple of MIC
[14] = tested on: APEC O1; type: cell-based, avian pathogenic Escherichia coli (APEC); conditions: APEC O1, M63 media; MIC/MBC
[15] = tested on: APEC O78-53; type: cell-based, avian pathogenic Escherichia coli (APEC); conditions: APEC O78-53, M63 media; MIC/MBC
[16] = tested on: Shiga toxin-producing (STEC) O157 and O26 strains; type: cell-based, E. coli; conditions: 100 µM, M63 media
[17] = tested on: APEC O2; type: cell-based, avian pathogenic Escherichia coli (APEC); conditions: APEC O2, M63 media; MIC/MBC
[18] = tested on: intracellular APEC O78 in THP-1 cells; assay: Intracellular survival assay (cidal SMs); conditions: O78, THP-1, 6 h treatment; superscript = multiple of MIC
[19] = tested on: intracellular APEC O2 in THP-1 cells; assay: Intracellular survival assay (cidal SMs); conditions: O2, THP-1, 6 h treatment; superscript = multiple of MIC
[20] = tested on: APEC O78; type: cell-based, avian pathogenic Escherichia coli (APEC)
[21] = tested on: intracellular APEC O2 in HD11 cells; assay: Intracellular survival assay (cidal SMs); conditions: O2, HD11, 6 h treatment; superscript = multiple of MIC
[22] = tested on: APEC O15; type: cell-based, avian pathogenic Escherichia coli (APEC); conditions: APEC O15, M63 media; MIC/MBC
[23] = tested on: intracellular APEC O1 in THP-1 cells; assay: Intracellular survival assay (cidal SMs); conditions: O1, THP-1, 6 h treatment; superscript = multiple of MIC
[24] = tested on: Rif^r APEC O78; assay: In vivo efficacy of growth inhibitors in APEC infected broiler chickens
[25] = tested on: APEC O109; type: cell-based, avian pathogenic Escherichia coli (APEC); conditions: APEC O109, M63 media; MIC/MBC
[26] = tested on: intracellular APEC O78 in HD11 cells; assay: Intracellular survival assay (cidal SMs); conditions: O78, HD11, 6 h treatment; superscript = multiple of MIC
[27] = APEC O78, M63 media, cell prints MIC/MBC, listed as 1

**Q.** How did the MBC [1] turn out when CC1CCCN(CCC(=O)c2ccc(Br)cc2)C1.Cl (centres unmarked) [SM1] was run?
**A.** 200 µM

**Q.** What about the MIC [1] of the same compound?
**A.** 200 µM

**Q.** What about the “SMs intracellular APEC clearance concentration” value [2] of the same compound?
**A.** >400 µM

**Q.** What about the “cytological profile (confocal, FM4-64 / SYTO-9)” value [3] of the same compound?
**A.** PG synthesis inhibitors

**Q.** What about the “Absorbance 260” value ([4]; 260 nm absorbing material in supernatant) of the same compound?
**A.** 4.00*

**Q.** And the “Absorbance 280” value ([4]; 280 nm absorbing material in supernatant)?
**A.** 3.08*

**Q.** And the MBC [5]?
**A.** 200 µM

**Q.** And the MIC [5]?
**A.** 200 µM

**Q.** And the “SMs intracellular APEC clearance concentration” value [6]?
**A.** 400^b µM

**Q.** And the MBEC [7]?
**A.** 400^d µM

**Q.** What about the “SMs intracellular APEC clearance concentration” value [8] of the same compound?
**A.** 200^a µM

**Q.** What about the MBC [9] of the same compound?
**A.** 200 µM

**Q.** And the MIC [9]?
**A.** 200 µM

**Q.** What about the MBC [10] of the same compound?
**A.** 250 µM

**Q.** And the MIC [10]?
**A.** 200 µM

**Q.** And the MBC [11]?
**A.** 200 µM

**Q.** And the MIC [11]?
**A.** 200 µM

**Q.** And the MBC [12]?
**A.** 200 µM

**Q.** And the MIC [12]?
**A.** 200 µM

**Q.** What about the “SMs intracellular APEC clearance concentration” value [13] of the same compound?
**A.** >400 µM

**Q.** What about the MBC [14] of the same compound?
**A.** 250 µM

**Q.** And the MIC [14]?
**A.** 200 µM

**Q.** And the MBC [15]?
**A.** 200 µM

**Q.** What about the MIC [15] of the same compound?
**A.** 200 µM

**Q.** And the “activity against STEC O157 and O26 strains” value [16]?
**A.** not cidal

**Q.** And the MBC [17]?
**A.** 200 µM

**Q.** What about the MIC [17] of the same compound?
**A.** 200 µM

**Q.** And the “SMs intracellular APEC clearance concentration” value [18]?
**A.** 200^a µM

**Q.** And the “SMs intracellular APEC clearance concentration” value [19]?
**A.** 200^a µM

**Q.** What about the “MBC relative to MIC” value ([20]; APEC O78) of the same compound?
**A.** identical to MIC

**Q.** What about the MBC ([20]; APEC O78, M63 media, cell prints MIC/MBC) of the same compound?
**A.** 200 µM

**Q.** And the MBC [20, 27]?
**A.** 200 µM

**Q.** And the MIC [20, 27]?
**A.** 200 µM

**Q.** What about the “SMs intracellular APEC clearance concentration” value [21] of the same compound?
**A.** 200^a µM

**Q.** What about the MBC [22] of the same compound?
**A.** 250 µM

**Q.** And the MIC [22]?
**A.** 200 µM

**Q.** What about the “SMs intracellular APEC clearance concentration” value [23] of the same compound?
**A.** 400^b µM

**Q.** And the “reduction of average APEC load in internal organs” value ([24]; average of liver, heart, lung and kidney, vs untreated control)?
**A.** either exacerbated or did not reduce

**Q.** And the “reduction of APEC induced mortality” value ([24]; oral gavage twice a day, 5 days, untreated mortality (58.34%) normalized to 100%)?
**A.** 14.28%

**Q.** What about the “reduction of APEC lesions severity (%), Air-sacs (airsacculitis)” value ([24]; untreated control = 100%) of the same compound?
**A.** -5.9%

**Q.** And the “reduction of APEC lesions severity (%), Heart (pericarditis)” value ([24]; untreated control = 100%)?
**A.** 33.3%

**Q.** What about the “reduction of APEC lesions severity (%), Liver (perihepatitis)” value ([24]; untreated control = 100%) of the same compound?
**A.** -20%

**Q.** And the “reduction of APEC load, Heart” value ([24]; vs untreated control)?
**A.** -1.8 log CFU/g of tissues

**Q.** What about the “reduction of APEC load, Kidney” value ([24]; vs untreated control) of the same compound?
**A.** -1.1 log CFU/g of tissues

**Q.** And the “reduction of APEC load, Liver” value ([24]; vs untreated control)?
**A.** -2.0 log CFU/g of tissues

**Q.** And the “reduction of APEC load, Lung” value ([24]; vs untreated control)?
**A.** -1.4 log CFU/g of tissues

**Q.** And the “Body weight gain (BWG)” value ([24]; weight of live chickens before necropsy minus weight before treatment)?
**A.** 165.62±69.17

**Q.** What about the MBC [25] of the same compound?
**A.** 200 µM

**Q.** And the MIC [25]?
**A.** 200 µM

**Q.** And the “SMs intracellular APEC clearance concentration” value [26]?
**A.** 200^a µM
